Counter-ions that a name gives are not always drawn. Like-named read-outs stand apart in the source and are kept apart here.
How the values were obtained:
patients = details: cited from earlier work
[1] = tested on: open-chest, anaesthetized cats; experiment: MCF-increasing effect in open-chest, anaesthetized cats (strain gauge arch on left ventricle); type: in vivo, cat; details: for change in vivo at 5 mg/kg: Felis catus, iv, 5 mg/kg i.v., open-chest anaesthetized cats, read-out: Increase in MCF as % of the initial value
Procedure: (A) Investigation on anaesthetized cats
The animals were intravenously (i.v.) anaesthetized by 30 mg/kg of pentobarbital-sodium. After arranging the artificial respiration, the chest and pericardium were opened. A strain gauge arch was sutured onto the epicardial surface of the left ventricle [J. Pharm. Exp. Ther. 90, 26 (1947)]. The blood pressure was measured by a catheter inserted to the femoral artery and joined to a P 23 Db pressure transducer and electromanometer. The test compounds were administered either i.v. through a femoral vein cannule, or intraduodenally (i.d.) through the duodenum cannule. At the beginning of the experiment, 0.2 μg/kg of isoproterenol (IS) was i.v. given as an internal standard for checking the myocardial reactivity. Namely, the value of the peak MCF response can also be altered according to the individual animals in the case of each positive inotropic agent. Thus, IS was not used as a real reference drug.
The MCF responses were expressed in the percentage changes of the initial value: the effect on MCF of 5 mg/kg i.v. of the test compound was compared to that of 0.2 μg/kg i.v. of IS.

[2] = Acute toxicity (LD50) in rats; details: rat, in vivo
Source text: (§1) The acute toxicity data of compound 22 are given as LD50 values in Table 2.

[3] = tested on: anaesthetized open-chest dogs; experiment: Investigation on anaesthetized open-chest dogs (MCF, coronary flow, blood pressure, heart rate); type: in vivo, dog
Procedure: (B) Investigation on anaesthetized dogs
The animals were i.v. anaesthetized by 35 mg/kg of pentobarbital-sodium. After opening the chest and pericardium, the lower ascending part of the left circumflex coronary artery was prepared and fitted with an electromagnetic flow probe for measuring the blood flow in the coronary artery. A strain gauge arch was placed onto the area supplied by this coronary artery for measuring the MCF. For determining the systemic blood pressure a femoral arterial cannule, for i.v. drug administration a femoral venous cannule was used. The dp/dt value was calculated from the pressure measured by a Millar type pressure transducer introduced to the left ventricle. All parameters were registered on a Beckman R 12 8-channel dynograph.

Ca-ATP-ase = Ca-ATP-ase activity ex vivo after 5 days i.p. treatment; type: in vivo; details: 2 mg/kg i.p. daily for 5 days; corrected to 1 g of heart tissue
Procedure: The activity of this enzyme was measured according to Mc Namara [J. Biochem. 75, 795 (1974)].
In another experiment, compound 22 was given in a 2 mg/kg i.p. daily dose for 5 days. After taking an ex vivo sample, the enzyme activity was found as decreased by 30% (as corrected to 1 g of heart tissue).

conscious cats = experiment: Investigation on chronically catheterized conscious cats; type: in vivo, cat; details: oral 0.5 to 8.0 mg/kg
Source text: (C) Investigation on conscious cats
These animals were used according to either the method of Rabloczky and Mader ("Measurement of Systemic and Pulmonary Arterial Pressure in Conscious Animals", lecture on Congress of the International Union of Pharmacologists, Budapest, 1980) or to some modification thereof. The aorta and pulmonary artery were chronically catheterized for measuring both blood pressures. In the modification, the right ventricle was also catheterized for determining the dp/dtmax value.

[4] = Acute toxicity (LD50) in mice; details: mouse, in vivo
Source text: as §1

Na-K-ATP-ase = biological target: T1, Na-K-ATP-ase (Homo sapiens, UniProt P05023); experiment: Na-K-ATP-ase activity in sarcolemma preparations; type: biochemical; details: 10^-7 M, 50 mM Tris-HCl pH 7.5
T1 construct: Sarcolemma preparations were made according to D. M. Bers; from tissue; host or cells: sarcolemma preparation (heart, from the cited Bers 1979 method and the context)
Procedure: (§2) Sarcolemma preparations were made according to D. M. Bers [Biochem. Biophys. Acta 555, 131 (1979)]. NADH-dichlorophenol-reductase was determined by using a Centrifi-CHEM® enzyme-analyzer. The activity of Na-K-ATP-ase was measured in 50 mM Tris-HCl (at pH 7.5). […] The activity of these enzymes was not altered by even a 10^-4 M concentration of compound 22.

[5] = tested on: NADH-dichlorophenol-reductase; experiment: NADH-dichlorophenol-reductase (NADH oxydase) activity in sarcolemma preparations; type: biochemical; details: 10^-7 M
Procedure: as §2

[6] = tested on: ^45 Ca^2+ uptake into the sarcoplasma reticulum; experiment: 45Ca2+ uptake into the sarcoplasma reticulum in the presence of ATP; type: biochemical; details: 10^-2 M
Source text: EFFECT OF COMPOUND 22 ON THE ^45 Ca^2+ UPTAKE INTO THE SARCOPLASMA RETICULUM IN THE PRESENCE OF ATP
The method of S. Harigaya [Circ. Res. 25, 761 (1969)] was used.

[7] = patients suffering from chronic heart failure

1-(4-hydroxyphenyl)-3-tertiary-butylamino-2-propanol [Prenalterol]
cardiac performance (patients; chronic oral treatment): not improved
effect in acute cardiac insufficiency (patients; given intravenously, clinics): very effective

Cc1nc2c(c(N(CCO)Cc3ccccc3)n1)OCC(=O)N2 [Example 11]
change in vivo at 5 mg/kg [1]: 83%

Cc1nc(NCCN2CCOCC2)c2c(n1)NC(=O)CO2 [Example 22, 2-Methyl-4-[2-(4-morpholinyl)-ethyl]-amino-6,7-dihydro-8H-pyrimido[5,4-b][1,4]oxazin-7-one dihydrochloride]
LD50 ([2]; ip, Female): 260 mg/kg
LD50 ([2]; ip, Male): 315 mg/kg
LD50 ([2]; iv, Female): 232 mg/kg
LD50 ([2]; iv, Male): 253 mg/kg
LD50 ([2]; po, Female): 810 mg/kg
LD50 ([2]; po, Male): 830 mg/kg
MCF increase ([3]; 1 mg/kg i.d.): 35 to 40%
MCF effect relative to amrinone ([3]; i.d. administration): at least 5 times
Ca-ATP-ase enzyme activity decrease, ex vivo sample (Ca-ATP-ase): 30%
change in vivo at 5 mg/kg [1]: 70%
peak increase in dp/dtmax (conscious cats): about 60%
LD50 ([4]; ip, Female): 573 mg/kg
LD50 ([4]; ip, Male): 572 mg/kg
LD50 ([4]; iv, Female): 340 mg/kg
LD50 ([4]; iv, Male): 324 mg/kg
LD50 ([4]; po, Female): 1420 mg/kg
LD50 ([4]; po, Male): 1360 mg/kg

Cc1nc(NCC2CN(Cc3ccccc3)CCO2)c2c(n1)NC(=O)CO2 (stereo not drawn) [Example 27, 4-[(4-Benzyl-2-morpholinyl)-methyl]-amino-2-methyl-6,7-dihydro-8H-pyrimido[5,4-b][1,4]oxazin-7-one dihydrochloride dihydrate]
MCF increase ([3]; 1 mg/kg i.v., dogs): 40%
coronary flow increase ([3]; 1 mg/kg i.v., dogs): 20%
decrease in diastolic pressure ([3]; 1 mg/kg i.v., dogs): 20%
decrease in the systemic systolic arterial blood pressure ([3]; 1 mg/kg i.v., dogs): 10%
duration of the coronary response ([3]; 1 mg/kg i.v., dogs): 20 min
half-life of the MCF effect ([3]; 1 mg/kg i.v., dogs): 10 min
heart rate increase (tachycardia) ([3]; 1 mg/kg i.v., dogs): 10%
MCF increase ([3]; 5 mg/kg i.d., dogs): 30%
duration of the MCF increase ([3]; 5 mg/kg i.d., dogs): 30 min
change in vivo at 5 mg/kg [1]: 130%

CC(=O)CN1C(=O)COc2c(NCCO)nc(C)nc21 [Example 29, 4-(2-Hydroxyethyl)-amino-2-methyl-8-(2-oxopropyl)-6,7-dihydro-8H-pyrimido[5,4-b][1,4]oxazine-7-one]
change in vivo at 5 mg/kg [1]: 40%

CCOC(=O)CN1C(=O)COc2c(NCCO)nc(C)nc21 [Example 37]
MCF increase ([3]; 0.5 mg/kg i.v., dogs): 56%
coronary flow increase ([3]; 0.5 mg/kg i.v., dogs): 34%
decrease in the systemic arterial blood pressure ([3]; 0.5 mg/kg i.v., dogs): 10 to 15%
tachycardia ([3]; 0.5 mg/kg i.v., dogs): 6 to 7%
MCF increase ([3]; 1 mg/kg i.v., dogs): 46%
coronary flow increase ([3]; 1 mg/kg i.v., dogs): 20%
duration of the coronary response ([3]; 1 mg/kg i.v., dogs): 10 min
heart rate increase (tachycardia) ([3]; 1 mg/kg i.v., dogs): 13%
decrease in the systemic arterial blood pressure ([3]; 1.0 mg/kg i.v., dogs): 20%
duration of the MCF increase ([3]; 1.0 mg/kg i.v., dogs): 10 min
duration of the heart rate increase ([3]; 1.0 mg/kg i.v., dogs): 5 min
MCF increase ([3]; 5 mg/kg i.d., dogs): about 30%
duration of the MCF increase ([3]; 5 mg/kg i.d., dogs): 60 min
change in vivo at 5 mg/kg [1]: 55.5%
positive inotropic action after i.d. administration ([1]; i.d., dose of both 20 mg/kg and 5 mg/kg): strong positive inotropic action

Cc1nc(Cl)c2c(n1)N(CC(O)CO)C(=O)CO2 (stereo not drawn) [Example 56]
change in vivo at 5 mg/kg [1]: 100%

Cc1nc(N2CCOCC2)c2c(n1)N(CC(O)CO)C(=O)CO2 (stereo not drawn) [Example 57, 8-(2,3-Dihydroxypropyl)-2-methyl-4-(4-morpholinyl)-6,7-dihydro-8H-pyrimido[5,4-b][1,4]oxazin-7-one]
change in vivo at 5 mg/kg [1]: 45%

Cc1nc(NCCCN2CCOCC2)c2c(n1)NC(=O)CO2 [Example 60, 2-Methyl-4-[3-(4-morpholinyl)-1-propyl]-amino-6,7-dihydro-8H-pyrimido[5,4-b][1,4]oxazin-7-one]
change in vivo at 5 mg/kg [1]: 51%

Cc1nc(NCCO)c2c(n1)N(CC(=O)N1CCOCC1)C(=O)CO2 [Example 66, 4-(2-Hydroxyethyl)-amino-2-methyl-8-(4-morpholinylcarbonyl)-methyl-6,7-dihydro-8H-pyrimido[5,4-b][1,4]oxazin-7-one]
change in vivo at 5 mg/kg [1]: 58.3%

CCCCOC(=O)CN1C(=O)COc2c(NCCO)nc(C)nc21 [Example 67, 8-(n-Butoxycarbonyl)methyl-4-(2-hydrocyethyl)amino-2-methyl-6,7-dihydro-8H-pyrimido[5,4-b][1,4]oxazin-7-one hydrochloride]
change in vivo at 5 mg/kg [1]: 37%

Cc1nc(NCCO)c2c(n1)N(Cc1ccccc1)C(=O)CO2 [Example 69, 8-Benzyl-2-methyl-4-(2-hydroxyethyl)-amino-2-methyl-6,7-dihydro-8H-pyrimidino[5,4-b][1,4]oxazin-7-one]
change in vivo at 5 mg/kg [1]: 66%

CCOC(=O)CN1C(=O)COc2c(N)nc(C)nc21 [Example 73]
change in vivo at 5 mg/kg [1]: 50%

CC(C)NCC(O)c1ccc(O)c(O)c1 (stereo not drawn) [IS, isoproterenol, reference compound]
blood circulation parameters ([1]; 0.2 μg/kg i.v., cats): did not influence
MCF response ([1]; 0.2 μg/kg i.v., internal standard, cats): short-lasting and completely reversible

C[C@@H]1O[C@@H](O[C@H]2C[C@@H](O)[C@]3(CO)[C@H]4[C@H](O)C[C@]5(C)[C@@H](C6=CC(=O)OC6)CC[C@]5(O)[C@@H]4CC[C@]3(O)C2)[C@H](O)[C@H](O)[C@H]1O [Ouabain]
Na-K-ATP-ase activity (Na-K-ATP-ase): strongly inhibited
indophenol-reductase inhibition [5]: slightly

CC(C)(C)NCC(O)c1ccc(O)c(CO)n1 (stereo not drawn) [Pirbuterol, 1-(5-hydroxy-6-hydroxymethyl-2-pyridyl)-2-tertiary-butylaminoethanol]
observation after a longer period of oral treatment (patients; longer period): addiction was observed
effect during oral treatment (patients; oral treatment for some weeks): favorable effect

COc1cc([S+](C)[O-])ccc1-c1nc2ncccc2[nH]1 (stereo not drawn) [Sulmazole, 2-(2-methoxy-4-methylsulfinylphenyl)-1H-imidazo[4,5-b]pyridine]
side-effects (patients; clinical tests): relatively frequent side-effects

Nc1cc(-c2ccncc2)c[nH]c1=O [amrinone, 5-amino-(3,4'-bipyridin)-6(1H)-one]
positive inotropic action compared with compound 22 ([3]; 2 mg/kg i.v. amrinone versus 0.4 mg/kg i.v. compound 22, dogs): not more effective than that of 0.4 mg/kg of compound 22
positive inotropic action after an acute myocardial ischaemia ([3]; anaesthetized open-chest dogs): significantly decreased
cardiac output (patients; [7]): significantly increased
resistance of the peripheral vessels (patients; [7]): diminished
side-effects (patients; therapeutic use): severe side-effects appearing in the blood picture

Cn1c(=O)c2c(ncn2C)n(C)c1=O [caffeine]
inhibition of Ca-uptake [6]: ~25%
